Assay results: patent US10882837B2, “Amide compounds and use thereof” (ALPHALA CO., LTD., priority 2017, dated 2021)

What was measured:
[1] = molecular target: GCGR (Homo sapiens, UniProt P47871); test: I125-glucagon binding assay (competition, GCGR membrane fractions); design: expressed in transfected cells; host or cells: CHO-K1; inhibition: dose or concentration left out as unconfirmed; details: for IC50: competition with I125-glucagon 0.0625 nM, membrane fractions from GCGR overexpressed CHO-K1 cells; for inhibition: read-out: percentage of inhibition (number in parenthesis in IC50 binding column)
How it was run: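 Membranes from CHO-K1 cells overexpressing GCGR (7.5 µg/well) were preincubated 5 min with serially diluted compound in 50 mM Tris pH 7.4, 0.5% BSA. I125-glucagon was then added at 0.0625 nM final and incubated 30 min at 25 °C. After filtration, bound radioactivity was counted and IC50 derived by non-linear regression.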

[2] = molecular target: T1, glucagon receptor (GCGR) (Homo sapiens, UniProt P47871); test: Glucagon cAMP inhibition assay (Cisbio cAMP Dynamic 2 HTRF); assay type: cell-based; details: GCGR overexpressed CHO-K1 cells or human primary hepatocytes (not specified); glucagon at EC50
T1 construct: expressed in transfected cells; host or cells: CHO-K1
How it was run: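 GCGR-overexpressing CHO-K1 cells or human primary hepatocytes in HBSS with 0.1% BSA and 800 nM IBMX, pre-incubated 30 min with compound (1% DMSO final), then stimulated 30 min at room temperature with glucagon at its EC50. cAMP measured by HTRF after 60 min lysis; IC50 from non-linear regression.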

Sequence of GCGR (P47871 26-477, species assumed): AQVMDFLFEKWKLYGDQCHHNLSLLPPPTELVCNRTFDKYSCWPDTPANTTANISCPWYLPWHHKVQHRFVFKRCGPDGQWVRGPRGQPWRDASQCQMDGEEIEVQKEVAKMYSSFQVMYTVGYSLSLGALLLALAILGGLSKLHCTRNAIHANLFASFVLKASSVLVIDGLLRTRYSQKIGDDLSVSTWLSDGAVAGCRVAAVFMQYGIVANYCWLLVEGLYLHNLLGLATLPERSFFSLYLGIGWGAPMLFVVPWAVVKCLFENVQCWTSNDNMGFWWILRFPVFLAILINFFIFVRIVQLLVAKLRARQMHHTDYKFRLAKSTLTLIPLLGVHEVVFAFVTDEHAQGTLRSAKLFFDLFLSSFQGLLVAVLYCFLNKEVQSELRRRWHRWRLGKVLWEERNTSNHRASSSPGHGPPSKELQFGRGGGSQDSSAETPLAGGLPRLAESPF
T1 sequence (P47871 26-477, species assumed): as above

SMILES | IC50 [1] | IC50 [2] | inhibition [1]
CC(C)C(Nc1ccc(C(=O)NCCC(=O)O)cc1)c1ccc(-c2nnc(-c3ccc(F)cc3)o2)cc1 (stereo not drawn) [Compound 1-18, 3-(4-((1-(4-(5-(4-Fluorophenyl)-1,3,4-oxadiazol-2-yl)phenyl)-2-methylpropyl)amino)benzamido)propanoic acid] | 122 nM | 4350 nM | 
CCCCC(Nc1ccc(C(=O)NCCC(=O)OC)cc1)c1ccc(-c2nnc(-c3ccccn3)o2)cc1 (stereo not drawn) [Compound 1-38, methyl 3-(4-((1-(4-(5-(pyridin-2-yl)-1,3,4-oxadiazol-2-yl)phenyl)pentyl)amino)benzamido)propanoate] | 1580 nM | 80 nM | 
CCOC(=O)CCNC(=O)c1ccc(N[C@H](c2ccc(-c3nnc(-c4ccccc4)o3)cc2)C(C)C)cc1 [Compound 1-39, (S)-ethyl 3-(4-(2-methyl-1-(4-(5-phenyl-1,3,4-oxadiazol-2-yl)phenyl)propylamino)benzamido)propanoate] | 2850 nM | 40.3 nM | 
CCCC[C@@H](Nc1ccc(C(=O)NCCC(=O)O)cc1)c1ccc(-c2nnc(-c3ccccn3)o2)cc1 [Compound 1-46] | 702 nM | > 30000 nM | 
CCOC(=O)CCNC(=O)c1ccc(N[C@@H](c2ccc(-c3nnc(C(F)(F)F)o3)cc2)C(C)CC)cc1 (stereo partly drawn) [Compound 1-35, ethyl 3-(4-(((1R)-2-methyl-1-(4-(5-(trifluoromethyl)-1,3,4-oxadiazol-2-yl)phenyl)butyl)amino)benzamido)propanoate] | > 30000 nM | 384 nM | 
CCOC(=O)CCNC(=O)c1ccc(N[C@@H](c2ccc(-c3nnc(C(F)(F)F)o3)cc2)C(C)C)cc1 [Compound 1-56, ethyl (R)-3-(4-((2-methyl-1-(4-(5-(trifluoromethyl)-1,3,4-oxadiazol-2-yl)phenyl)propyl)amino)benzamido)propanoate] | > 30000 nM | 164 nM | 
CCOC(=O)CCNC(=O)c1ccc(NC(c2ccc(-c3nnc(-c4ccc(OC)cc4)o3)cc2)C(C)C)cc1 (stereo not drawn) [Compound 1-25, ethyl 3-(4-((l-(4-(5-(4-methoxyphenyl)-1,3,4-oxadiazol-2-yl)phenyl)-2-methylpropyl)amino)benzamido)propanoate] | > 30000 nM | 284 nM | 
CC(C)[C@H](Nc1ccc(C(=O)NCCS(=O)(=O)O)cc1)c1ccc(-c2nnc(-c3ccccc3)o2)cc1 [Compound 1-64, (S)-2-(4-((2-methyl-1-(4-(5-phenyl-1,3,4-oxadiazol-2-yl)phenyl)propyl)amino)benzamido)ethane-1-sulfonic acid] | 101 nM | > 30000 nM | 
CC(C)C(Nc1ccc(C(=O)NCCC(=O)O)cc1)c1ccc(-c2nnc(-c3ccccc3)o2)cc1 (stereo not drawn) [Compound 1-1, 3-(4-((2-Methyl-1-(4-(5-phenyl-1,3,4-oxadiazol-2-yl)phenyl)propyl)amino)benzamido)propanoic acid] | 27 nM | 4690 nM | 
CCCC[C@@H](Nc1ccc(C(=O)NCCC(=O)OCC)cc1)c1ccc(-c2nnc(C(F)(F)F)o2)cc1 [Compound 1-52, ethyl (R)-3-(4-((1-(4-(5-(trifluoromethyl)-1,3,4-oxadiazol-2-yl)phenyl)pentyl)amino)benzamido)propanoate] | > 30000 nM | 439 nM | 
CC(C)C(Nc1ccc(C(=O)NCCC(=O)O)cc1)c1ccc(-c2nnc(C(F)(F)F)o2)cc1 (stereo not drawn) [Compound 1-4, 3-(4-((2-Methyl-1-(4-(5-(trifluoromethyl)-1,3,4-oxadiazol-2-yl)phenyl)propyl)amino)benzamido)propanoic acid] | 433 nM | > 30000 nM | 
CCC(C)[C@@H](Nc1ccc(C(=O)NCCC(=O)O)cc1)c1ccc(-c2nnc(C(F)(F)F)o2)cc1 (stereo partly drawn) [Compound 1-37, 3-(4-(((1R)-2-methyl-1-(4-(S-(trifluoromethyl)-1,3,4-oxadiazol-2-yl)phenyl)butyl)amino)benzamido)propanoic acid] | 1640 nM | 3260 nM | 
CCCC(Nc1ccc(C(=O)NCCC(=O)OCC)cc1)c1ccc(-c2nnc(-c3ccccc3)o2)cc1 (stereo not drawn) [Compound 1-6, Ethyl 3-(4-((1-(4-(5-phenyl-1,3,4-oxadiazol-2-yl)phenyl)butyl)amino)benzamido)propanoate] | 2610 nM | 31 nM | 
CCCCC(Nc1ccc(C(=O)NCCS(=O)(=O)O)cc1)c1ccc(-c2nnc(-c3ccccc3)o2)cc1 (stereo not drawn) [Compound 1-13, 2-(4-((1-(4-(5-phenyl-1,3,4-oxadiazol-2-yl)phenyl)pentyl)amino)benzamido)ethane-1-sulfonic acid] | 314 nM | > 30000 nM | 

The next lines start with the values.

IC50 [1] | IC50 [2] | inhibition [1] | SMILES
1210 nM | 49 nM | 27% | CCCCC(Nc1ccc(C(=O)NCCC(=O)OCC)cc1)c1ccc(-c2noc(-c3ccccc3)n2)cc1 (stereo not drawn) [Compound 2-7, ethyl 3-(4-((1-(4-(5-phenyl-1,2,4-oxadiazol-3-yl)phenyl)pentyl)amino)benzamido)propanoate]
199 nM | 338 nM |  | CCCC[C@@H](Nc1ccc(C(=O)NCCC(=O)O)cc1)c1ccc(-c2noc(-c3ccccc3)n2)cc1 [Compound 2-36, (R)-3-(4-((1-(4-(5-phenyl-1,2,4-oxadiazol-3-yl)phenyl)pentyl)amino)benzamido)propanoic acid]
> 30000 nM | 118 nM |  | CCCC[C@H](Nc1ccc(C(=O)NCCC(=O)OCC)cc1)c1ccc(-c2noc(C(F)(F)F)n2)cc1 [Compound 2-45, ethyl (S)-3-(4-((1-(4-(5-(trifluoromethyl)-1,2,4-oxadiazol-3-yl)phenyl)pentyl)amino)benzamido)propanoate]
178 nM | 438 nM |  | CCOC(=O)CCNC(=O)c1ccc(NC(c2ccc(-c3noc(-c4ccccc4)n3)cc2)C2CCCCC2)cc1 (stereo not drawn) [Compound 2-16, ethyl 3-(4-((cyclohexyl(4-(5-phenyl-1,2,4-oxadiazol-3-yl)phenyl)methyl)amino)benzamido)propanoate]
127 nM | 42.3 nM |  | CCOC(=O)CCNC(=O)c1ccc(N[C@H](c2ccc(-c3nc4ccccc4s3)cc2)C(C)C)nc1 [Compound 4-27, ethyl (S)-3-(6-((1-(4-(benzo[d]thiazol-2-yl)phenyl)-2-methylpropyl)amino)nicotinamido)propanoate]
3060 nM | 180 nM | 38% | CCOC(=O)CCNC(=O)c1ccc(NC(c2ccc(-c3noc(-c4cccs4)n3)cc2)C(C)C)cc1 (stereo not drawn) [Compound 2-11, ethyl 3-(4-((2-methyl-1-(4-(5-(thiophen-2-yl)-1,2,4-oxadiazol-3-yl)phenyl)propyl)amino)benzamido)propanoate]
20 nM | 211 nM |  | CC(C)C[C@H](Nc1ccc(C(=O)NCCC(=O)O)cc1)c1ccc(-c2nc(-c3ccccc3)no2)cc1 [Compound 5-2, (S)-3-(4-((3-methyl-1-(4-(3-phenyl-1,2,4-oxadiazol-5-yl)phenyl)butyl)amino)benzamido)propanoic acid]
1110 nM | 133 nM |  | CC(C)C(Oc1ccc(C(=O)NCCC(=O)O)cc1)c1ccc(-c2nc3ccccc3s2)cc1 (stereo not drawn) [Compound 6-2, 3-(4-(1-(4-(Benzo[d]thiazol-2-yl)phenyl)-2-methylpropoxy)benzamido)propanoic acid]
126 nM | 312 nM |  | CCCCC(Nc1ccc(C(=O)NCCC(=O)O)cc1)c1ccc(-c2noc(-c3cccs3)n2)cc1 (stereo not drawn) [Compound 2-13, 3-(4-((1-(4-(5-(thiophen-2-yl)-1,2,4-oxadiazol-3-yl)phenyl)pentyl)amino)benzamido)propanoic acid]
74 nM | 1030 nM |  | CCC(C)C(Nc1ccc(-c2nnc(-c3ccc(F)cc3)o2)cc1)c1ccc(C(=O)NCCC(=O)O)cc1 (stereo not drawn) [Compound 3-8, 3-(4-(1-((4-(5-(4-fluorophenyl)-1,3,4-oxadiazol-2-yl)phenyl)amino)-2-methylbutyl)benzamido)propanoic acid]
112 nM | 917 nM |  | CC(C)C[C@@H](Nc1ccc(C(=O)NCCC(=O)O)cc1)c1ccc(-c2nc3ccccc3o2)cc1 [Compound 4-14, (R)-3-(4-((1-(4-(benzo[d]oxazol-2-yl)phenyl)-3-methylbutyl)amino)benzamido)propanoic acid]
40 nM | 852 nM |  | CCCC[C@@H](Nc1ccc(C(=O)NCCC(=O)OCC)cc1)c1ccc(-c2noc(-c3ccccc3)n2)cc1 [Compound 2-35, ethyl (R)-3-(4-((1-(4-(5-phenyl-1,2,4-oxadiazol-3-yl)phenyl)pentyl)amino)benzamido)propanoate]
